Our source for the IC50 and melting point values is patent US20120010241A1, “HSP90 INHIBITING INDAZOLE DERIVATIVES, COMPOSITIONS CONTAINING SAME AND USE THEREOF” (SANOFI, priority 2009, published 2012).

Molecules are shown by their SMILES. Bounds are passed on as bounds.

The test system of data set [1] is Her2 expression in SKBr3 cells. The data set is described as follows: phenotypic SKBr3/HER2 cell test (Her2 expression at the cell surface, flow cytometry). It counts as cell-based. Particulars: Homo sapiens, SK-BR-3, incubation for 24 h, anti-Her2 antibody coupled to PE, FACS. The procedure: The cellular activity of the compounds can in particular be evaluated by means of the phenotypic “SKBr3/HER2” cell test described below:
The SKBr3 […] adenocarcinoma cells, overexpressing the Her2 tyrosine kinase receptor, originate from the ATCC (HTB-30) and are cultured in McCoy's 5A medium supplemented with 10% FBS and 1% L-glutamine.
The cells are seeded in 12-well plates at a proportion of 125 000 cells per well in 1 ml of complete medium. The following day, the products are added at varying concentrations. After incubation for 24 h, the cells are trypsinized, washed with PBS and incubated with 100 ng of anti-Her2 antibody coupled to PE (phycoerythrin) (BD 340552) for 30 minutes at 4° C. in the dark. The fluorescence due to the expression of the Her2 receptor at the surface of the cells is then read using a FACS Calibur flow cytometer (Becton-Dickinson). The percentage inhibition of Her2 expression as a function of the concentrations of product tested is fitted by the nonlinear regression technique (XLfit, equation 205) in order to measure the IC50 for each product.
For orientation: In flow cytometry, cells or beads pass a laser one at a time.

For a further data set, the target named is Hsp82 (Saccharomyces cerevisiae, UniProt P02829). The data set is described as follows: Hsp82/ATPase test (PK/LDH coupled spectrophotometric method; malachite green method also described). As to conditions: 1 μM Hsp82, 250 μM ATP, 37° C., absorbance at 340 nm. Format: biochemical. The procedure:
The biochemical activity of the compounds can in particular be evaluated by means of the “Hsp82/ATPase” test described below:
The inorganic phosphate released during the hydrolysis of ATP by the ATPase activity of Hsp82 is quantified by the malachite green method. In the presence of this reagent, formation of the inorganic phosphate-molybdate-malachite green complex, which absorbs at a wavelength of 620 nm, occurs.
The products to be evaluated are incubated in a reaction volume of 30 μl, in the presence of 1 μM Hsp82 and of 250 μM of substrate (ATP) in a buffer composed of 50 mM Hepes-NaOH (pH 7.5), 1 mM DTT, 5 mM MgCl2 and 50 mM KCl at 37° C. for 60 min. In parallel, an inorganic phosphate range of between 1 and 40 μM is made up in the same buffer. […] The inorganic phosphate concentration of each sample is then calculated from the standard curve. The ATPase activity of Hsp82 is expressed as concentration of inorganic phosphate produced in 60 minutes. The effect of the various products tested is expressed as percentage inhibition of the ATPase activity.
The formation of ADP due to the ATPase activity of Hsp82 was used to develop another method for evaluating the enzyme activity of this enzyme by application of an enzymatic coupling system involving pyruvate kinase (PK) and lactate dehydrogenase (LDH). In this kinetic-type spectrophotometric method, PK catalyses the formation of ATP and of pyruvate from phosphoenol pyruvate (PEP) and the ADP produced by Hsp82. The pyruvate formed, which is a substrate for LDH, is subsequently converted to lactate in the presence of NADH. In this case, the decrease in the NADH concentration, measured through the decrease in absorbance at the wavelength of 340 nm, is proportional to the concentration of ADP produced by Hsp82.
The products tested are incubated in a reaction volume of 100 μl of buffer composed of 100 mM Hepes-NaOH (pH 7.5), 5 mM MgCl2, 1 mM DTT, 150 mM KCl, 0.3 mM NADH, 2.5 mM PEP and 250 μM ATP. This mixture is preincubated at 37° C. for 30 minutes before the addition of 3.77 units of LDH and 3.77 units of PK. The reaction is initiated by addition of the product to be evaluated, in varying concentrations, and of Hsp82, at the concentration of 1 μM. The enzymatic activity of Hsp82 is then measured continuously, in a microplate reader, at 37° C., at the wavelength of 340 nm. The initial rate of the reaction is obtained by measuring the slope of the tangent to the origin of the curve recorded. The enzymatic activity is expressed in μM of ADP formed per minute. The effect of the various products tested is expressed as 50% inhibitory concentration (1050) with respect to the ATPase activity, according to the codification below: […]

Sequence of Hsp82 (P02829 whole entry): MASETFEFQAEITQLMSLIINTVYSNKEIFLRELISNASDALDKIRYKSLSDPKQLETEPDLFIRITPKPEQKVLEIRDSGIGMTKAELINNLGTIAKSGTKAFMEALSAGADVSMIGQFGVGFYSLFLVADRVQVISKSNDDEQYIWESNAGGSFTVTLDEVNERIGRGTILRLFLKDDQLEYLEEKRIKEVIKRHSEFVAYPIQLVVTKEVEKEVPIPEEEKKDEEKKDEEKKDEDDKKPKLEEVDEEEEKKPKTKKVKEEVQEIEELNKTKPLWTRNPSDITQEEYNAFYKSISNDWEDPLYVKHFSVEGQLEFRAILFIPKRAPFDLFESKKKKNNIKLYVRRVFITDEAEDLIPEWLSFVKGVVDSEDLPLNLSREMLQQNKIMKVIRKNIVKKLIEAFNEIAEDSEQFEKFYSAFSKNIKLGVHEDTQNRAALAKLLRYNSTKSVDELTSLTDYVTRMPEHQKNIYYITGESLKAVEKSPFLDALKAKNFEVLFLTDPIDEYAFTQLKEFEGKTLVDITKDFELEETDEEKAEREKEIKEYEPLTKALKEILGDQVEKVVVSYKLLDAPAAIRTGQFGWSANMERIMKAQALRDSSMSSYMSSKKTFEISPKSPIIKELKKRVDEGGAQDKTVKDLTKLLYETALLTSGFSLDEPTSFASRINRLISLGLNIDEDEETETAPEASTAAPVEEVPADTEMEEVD

A word on the IC50: it is the concentration needed to halve the response being measured. The term melting point denotes the temperature, or range, at which the solid turns liquid. As to `Cc1nn(-c2ccc(C(N)=O)c(NC3CC4CCC3O4)c2)c2cccc(-c3cnc4ccccc4c3)c12` (stereo not drawn) [Example 14, 4-(3-methyl-4-quinolin-3-ylindazol-1-yl)-2-[exo-(7-oxabicyclo[2.2.1]hept-2-yl)amino]benzamide], the melting point lay within 170 to 172 °C. This molecule gave an IC50 in data set [1] of under 1000 nM.

For the molecule `Cc1nn(-c2ccc(C(N)=O)c(NC3CC(C)(C)N(C)C(C)(C)C3)c2)c2cccc(-c3cnc4ccccc4c3)c12` [Example 15, 4-(3-methyl-4-quinolin-3-ylindazol-1-yl)-2-(1,2,2,6,6-pentamethylpiperidin-4-ylamino)benzamide], the values for the IC50 (in data set [1]; at Hsp82) were under 1000 nM and 1000 to 10000 nM, respectively.

Consider `Cc1nn(-c2cnc(C(N)=O)c(NCCc3ccccn3)c2)c2cccc(-c3cnc4ccccc4c3)c12` [Example 18, 5-[3-methyl-4-quinolin-3-ylindazol-1-yl]-3-[2-pyridin-2-ylethylamino]pyridine-2-carboxamide], for which the results for the IC50 (in data set [1]; at Hsp82) were 1000 to 10000 nM and under 1000 nM, respectively.
